Source: ChEMBL document CHEMBL4507307 (2021)
The source made the active and inactive calls. The rule behind the calls is not given here.

Legend:
[1] = biological target: T1, GABA-A receptor; anion channel (Rattus norvegicus) (UniProt O09028+P15431+P18506+P18508+P19969+P20236+P23574+P23576+P28471+P28473+P30191+P62813+P63079+P63138+Q91ZM7+Q9ES14); settings: Compound concentration 10.0 uM
D(2) dopamine receptor = D(2) dopamine receptor (Homo sapiens, UniProt P14416); settings: Compound concentration 10.0 uM
Chain of D(2) dopamine receptor (P14416 whole entry): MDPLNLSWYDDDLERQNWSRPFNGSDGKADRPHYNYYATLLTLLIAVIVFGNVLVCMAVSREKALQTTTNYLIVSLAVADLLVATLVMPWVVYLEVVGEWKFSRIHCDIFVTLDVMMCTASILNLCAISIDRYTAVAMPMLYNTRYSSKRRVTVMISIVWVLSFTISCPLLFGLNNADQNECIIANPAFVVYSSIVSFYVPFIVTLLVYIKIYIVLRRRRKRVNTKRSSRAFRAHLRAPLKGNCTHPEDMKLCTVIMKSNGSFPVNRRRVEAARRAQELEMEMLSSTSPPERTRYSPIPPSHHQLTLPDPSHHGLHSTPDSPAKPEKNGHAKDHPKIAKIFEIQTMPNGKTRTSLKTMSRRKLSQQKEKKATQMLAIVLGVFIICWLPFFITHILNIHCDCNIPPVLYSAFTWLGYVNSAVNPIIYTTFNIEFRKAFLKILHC

[2] = biological target: D(1B) dopamine receptor (Homo sapiens) (UniProt P21918); settings: Compound concentration 10.0 uM
[3] = biological target: Receptor-type tyrosine-protein kinase FLT3 (Homo sapiens, UniProt P36888); assay: NanoBRET (SGC Frankfurt) (FLT3)
[4] = biological target: 5-hydroxytryptamine receptor 1D (Homo sapiens, UniProt P28221); settings: Compound concentration 10.0 uM
[5] = biological target: Sodium-dependent dopamine transporter (Homo sapiens) (UniProt Q01959); settings: Compound concentration 10.0 uM
[6] = biological target: 5-hydroxytryptamine receptor 2C (Homo sapiens) (UniProt P28335); settings: Compound concentration 10.0 uM
Mu-type opioid receptor = Mu-type opioid receptor (Homo sapiens, UniProt P35372); settings: Compound concentration 10.0 uM
[7] = biological target: Alpha-2B adrenergic receptor (Homo sapiens) (UniProt P18089); settings: Compound concentration 10.0 uM
Chain of Alpha-2B adrenergic receptor (Homo sapiens) (P18089 whole entry): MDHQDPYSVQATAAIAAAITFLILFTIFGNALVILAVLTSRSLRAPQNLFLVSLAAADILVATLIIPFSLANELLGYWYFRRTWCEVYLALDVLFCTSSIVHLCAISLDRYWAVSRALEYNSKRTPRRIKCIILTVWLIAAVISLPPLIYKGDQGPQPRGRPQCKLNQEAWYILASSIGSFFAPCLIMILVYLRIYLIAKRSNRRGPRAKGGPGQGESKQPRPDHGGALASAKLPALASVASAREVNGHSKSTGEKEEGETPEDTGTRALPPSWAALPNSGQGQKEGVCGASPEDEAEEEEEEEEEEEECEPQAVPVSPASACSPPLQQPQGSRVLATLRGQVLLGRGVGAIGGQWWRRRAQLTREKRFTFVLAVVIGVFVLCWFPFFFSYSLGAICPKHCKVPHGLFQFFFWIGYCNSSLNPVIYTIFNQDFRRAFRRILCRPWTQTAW

[8] = biological target: Sodium-dependent noradrenaline transporter (Homo sapiens) (UniProt P23975); settings: Compound concentration 10.0 uM
[9] = biological target: Sigma non-opioid intracellular receptor 1 (Homo sapiens, UniProt Q99720); settings: Compound concentration 10.0 uM
[10] = biological target: T1, GABA-A receptor; anion channel (Rattus norvegicus); settings: Compound concentration 10.0 uM; remark: listed apart in the source
[11] = biological target: Beta-1 adrenergic receptor (Homo sapiens) (UniProt P08588); settings: Compound concentration 10.0 uM
[12] = biological target: Dual specificity protein kinase CLK4 (Homo sapiens, UniProt Q9HAZ1); assay: NanoBRET (SGC Frankfurt) (CLK4)
[13] = biological target: Muscarinic acetylcholine receptor M2 (Homo sapiens) (UniProt P08172); settings: Compound concentration 10.0 uM
[14] = biological target: Muscarinic acetylcholine receptor M3 (Homo sapiens) (UniProt P20309); settings: Compound concentration 10.0 uM
Chain of Muscarinic acetylcholine receptor M3 (Homo sapiens) (P20309 whole entry, looked up): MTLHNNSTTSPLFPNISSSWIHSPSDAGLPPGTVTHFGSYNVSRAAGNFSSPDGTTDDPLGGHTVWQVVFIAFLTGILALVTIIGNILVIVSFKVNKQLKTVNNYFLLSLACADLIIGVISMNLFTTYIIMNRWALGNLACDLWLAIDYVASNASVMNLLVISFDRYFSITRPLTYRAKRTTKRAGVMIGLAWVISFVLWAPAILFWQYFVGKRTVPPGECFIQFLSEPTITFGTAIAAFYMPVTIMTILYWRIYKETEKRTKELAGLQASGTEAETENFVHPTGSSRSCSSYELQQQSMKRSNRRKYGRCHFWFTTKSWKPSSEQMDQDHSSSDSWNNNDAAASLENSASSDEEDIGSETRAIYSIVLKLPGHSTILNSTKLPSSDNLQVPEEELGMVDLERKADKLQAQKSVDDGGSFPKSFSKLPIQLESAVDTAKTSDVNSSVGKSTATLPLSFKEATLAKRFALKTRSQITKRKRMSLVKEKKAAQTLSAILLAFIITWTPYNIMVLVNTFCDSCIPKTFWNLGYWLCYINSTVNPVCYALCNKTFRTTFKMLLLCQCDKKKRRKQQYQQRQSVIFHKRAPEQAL

[15] = biological target: 5-hydroxytryptamine receptor 1B (Homo sapiens, UniProt P28222); settings: Compound concentration 10.0 uM
Chain of 5-hydroxytryptamine receptor 1B (P28222 whole entry): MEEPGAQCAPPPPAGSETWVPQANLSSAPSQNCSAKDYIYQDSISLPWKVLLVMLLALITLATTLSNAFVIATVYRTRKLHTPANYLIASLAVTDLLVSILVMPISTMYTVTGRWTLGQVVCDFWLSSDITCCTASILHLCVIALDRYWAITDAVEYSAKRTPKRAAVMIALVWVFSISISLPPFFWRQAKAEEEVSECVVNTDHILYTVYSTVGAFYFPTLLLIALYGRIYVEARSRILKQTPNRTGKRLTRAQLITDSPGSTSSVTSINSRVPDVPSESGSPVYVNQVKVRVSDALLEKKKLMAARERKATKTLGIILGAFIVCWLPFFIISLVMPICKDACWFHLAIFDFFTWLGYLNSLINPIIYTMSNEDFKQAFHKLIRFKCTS

[16] = biological target: 5-hydroxytryptamine receptor 2B (Homo sapiens) (UniProt P41595); settings: Compound concentration 10.0 uM
[17] = biological target: Alpha-1A adrenergic receptor (Homo sapiens) (UniProt P35348); settings: Compound concentration 10.0 uM
Chain of Alpha-1A adrenergic receptor (Homo sapiens) (P35348 whole entry): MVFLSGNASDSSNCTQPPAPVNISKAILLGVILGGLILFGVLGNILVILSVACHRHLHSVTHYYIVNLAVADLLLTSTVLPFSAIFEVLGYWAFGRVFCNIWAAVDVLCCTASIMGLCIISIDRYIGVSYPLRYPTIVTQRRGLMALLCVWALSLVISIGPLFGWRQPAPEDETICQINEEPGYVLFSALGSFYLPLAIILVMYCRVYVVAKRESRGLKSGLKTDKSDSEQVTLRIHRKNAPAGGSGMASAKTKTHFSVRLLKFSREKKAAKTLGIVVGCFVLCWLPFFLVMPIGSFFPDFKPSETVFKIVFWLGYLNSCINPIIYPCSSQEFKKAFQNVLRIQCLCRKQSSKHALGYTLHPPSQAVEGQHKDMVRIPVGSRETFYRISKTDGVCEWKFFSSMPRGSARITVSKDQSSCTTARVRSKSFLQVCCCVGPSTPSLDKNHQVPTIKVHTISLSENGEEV

[18] = biological target: 5-hydroxytryptamine receptor 7 (Homo sapiens) (UniProt P34969); settings: Compound concentration 10.0 uM
Chain of 5-hydroxytryptamine receptor 7 (Homo sapiens) (P34969 whole entry): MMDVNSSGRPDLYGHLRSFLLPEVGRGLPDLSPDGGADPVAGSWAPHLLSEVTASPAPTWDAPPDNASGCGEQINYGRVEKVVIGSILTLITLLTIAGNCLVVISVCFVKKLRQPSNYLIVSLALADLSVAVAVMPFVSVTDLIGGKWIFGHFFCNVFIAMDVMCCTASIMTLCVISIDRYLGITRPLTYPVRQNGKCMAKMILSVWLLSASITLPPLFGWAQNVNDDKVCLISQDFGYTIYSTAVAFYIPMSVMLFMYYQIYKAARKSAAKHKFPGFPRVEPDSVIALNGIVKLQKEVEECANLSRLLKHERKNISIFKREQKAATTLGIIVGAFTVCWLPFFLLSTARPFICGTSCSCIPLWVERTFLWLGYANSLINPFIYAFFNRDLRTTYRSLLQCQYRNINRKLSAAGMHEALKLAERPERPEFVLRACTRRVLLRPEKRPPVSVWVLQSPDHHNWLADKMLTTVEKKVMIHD

[19] = biological target: Sigma intracellular receptor 2 (Homo sapiens, UniProt Q5BJF2); settings: Compound concentration 10.0 uM
Chain of Sigma intracellular receptor 2 (Q5BJF2 whole entry): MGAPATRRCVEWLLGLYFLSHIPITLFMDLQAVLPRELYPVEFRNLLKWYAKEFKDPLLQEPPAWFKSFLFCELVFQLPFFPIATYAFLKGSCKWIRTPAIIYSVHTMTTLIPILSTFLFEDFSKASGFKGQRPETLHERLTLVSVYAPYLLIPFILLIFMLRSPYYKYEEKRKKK

[20] = biological target: Kappa-type opioid receptor (Homo sapiens, UniProt P41145); settings: Compound concentration 10.0 uM
[21] = biological target: Alpha-1B adrenergic receptor (Homo sapiens) (UniProt P35368); settings: Compound concentration 10.0 uM
[22] = biological target: Sodium-dependent serotonin transporter (Homo sapiens) (UniProt P31645); settings: Compound concentration 10.0 uM
[23] = biological target: Dual specificity protein kinase CLK1 (Homo sapiens, UniProt P49759); assay: NanoBRET (SGC Frankfurt) (CLK1)
D(1A) dopamine receptor = D(1A) dopamine receptor (Homo sapiens, UniProt P21728); settings: Compound concentration 10.0 uM
[24] = biological target: D(4) dopamine receptor (Homo sapiens) (UniProt P21917); settings: Compound concentration 10.0 uM
Chain of D(4) dopamine receptor (Homo sapiens) (P21917 whole entry): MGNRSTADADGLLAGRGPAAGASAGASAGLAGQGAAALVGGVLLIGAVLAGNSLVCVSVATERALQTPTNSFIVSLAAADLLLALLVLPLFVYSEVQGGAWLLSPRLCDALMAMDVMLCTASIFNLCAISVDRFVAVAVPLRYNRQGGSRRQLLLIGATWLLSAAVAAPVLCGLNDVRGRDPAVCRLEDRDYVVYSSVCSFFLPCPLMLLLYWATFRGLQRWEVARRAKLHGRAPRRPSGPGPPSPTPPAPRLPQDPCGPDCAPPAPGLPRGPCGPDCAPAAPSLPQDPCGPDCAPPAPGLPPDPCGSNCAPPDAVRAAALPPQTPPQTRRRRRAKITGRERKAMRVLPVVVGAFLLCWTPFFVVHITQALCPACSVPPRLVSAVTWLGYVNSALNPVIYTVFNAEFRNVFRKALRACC

Histamine H1 receptor [25] = biological target: T2, Histamine H1 receptor (Homo sapiens, UniProt P35367); settings: Compound concentration 10.0 uM
T2 sequence (P35367 whole entry): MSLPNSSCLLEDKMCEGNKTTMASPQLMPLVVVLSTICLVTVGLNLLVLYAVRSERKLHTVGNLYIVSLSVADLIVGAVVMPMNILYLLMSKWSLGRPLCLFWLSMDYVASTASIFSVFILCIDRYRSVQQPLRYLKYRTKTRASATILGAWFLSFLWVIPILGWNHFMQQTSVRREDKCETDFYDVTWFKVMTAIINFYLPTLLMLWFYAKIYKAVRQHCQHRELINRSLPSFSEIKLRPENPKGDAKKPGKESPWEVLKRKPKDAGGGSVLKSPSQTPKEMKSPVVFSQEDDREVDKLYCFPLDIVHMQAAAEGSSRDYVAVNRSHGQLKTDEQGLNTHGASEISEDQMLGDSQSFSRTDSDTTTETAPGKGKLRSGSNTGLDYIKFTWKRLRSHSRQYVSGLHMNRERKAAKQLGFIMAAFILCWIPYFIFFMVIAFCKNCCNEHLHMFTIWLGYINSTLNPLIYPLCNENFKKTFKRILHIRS

[26] = biological target: Alpha-2C adrenergic receptor (Homo sapiens) (UniProt P18825); settings: Compound concentration 10.0 uM
Histamine H2 receptor = Histamine H2 receptor (Homo sapiens, UniProt P25021); settings: Compound concentration 10.0 uM
[27] = biological target: Beta-2 adrenergic receptor (Homo sapiens) (UniProt P07550); settings: Compound concentration 10.0 uM
[28] = biological target: Serine/threonine-protein kinase SIK2 (Homo sapiens, UniProt Q9H0K1); assay: NanoBRET (SGC Frankfurt) (SIK2)
[29] = biological target: Delta-type opioid receptor (Homo sapiens) (UniProt P41143); settings: Compound concentration 10.0 uM
[30] = biological target: Histamine H3 receptor (Homo sapiens) (UniProt Q9Y5N1); settings: Compound concentration 10.0 uM
[31] = biological target: 5-hydroxytryptamine receptor 1E (Homo sapiens, UniProt P28566); settings: Compound concentration 10.0 uM
[32] = biological target: Muscarinic acetylcholine receptor M5 (Homo sapiens) (UniProt P08912); settings: Compound concentration 10.0 uM
Chain of Muscarinic acetylcholine receptor M5 (Homo sapiens) (P08912 whole entry): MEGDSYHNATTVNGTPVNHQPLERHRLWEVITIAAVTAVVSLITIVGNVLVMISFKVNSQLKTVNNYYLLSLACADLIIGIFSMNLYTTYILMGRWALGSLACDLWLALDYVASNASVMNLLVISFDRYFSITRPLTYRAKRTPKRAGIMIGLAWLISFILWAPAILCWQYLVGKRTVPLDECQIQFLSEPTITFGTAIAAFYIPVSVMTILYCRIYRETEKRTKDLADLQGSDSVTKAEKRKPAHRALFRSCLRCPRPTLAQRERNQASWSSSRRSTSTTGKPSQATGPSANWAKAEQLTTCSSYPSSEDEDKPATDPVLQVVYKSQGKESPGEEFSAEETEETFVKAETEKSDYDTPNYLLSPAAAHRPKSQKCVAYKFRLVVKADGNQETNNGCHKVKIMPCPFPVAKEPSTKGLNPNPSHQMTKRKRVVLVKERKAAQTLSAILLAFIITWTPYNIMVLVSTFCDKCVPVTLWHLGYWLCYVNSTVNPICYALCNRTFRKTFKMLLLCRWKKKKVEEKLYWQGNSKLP

[33] = biological target: Muscarinic acetylcholine receptor M4 (Homo sapiens) (UniProt P08173); settings: Compound concentration 10.0 uM
[34] = biological target: 5-hydroxytryptamine receptor 3A (Homo sapiens) (UniProt P46098); settings: Compound concentration 10.0 uM
[35] = biological target: Dual specificity tyrosine-phosphorylation-regulated kinase 1A (Homo sapiens, UniProt Q13627); assay: NanoBRET (SGC Frankfurt) (DYRK1A)
[36] = biological target: Dual specificity tyrosine-phosphorylation-regulated kinase 1B (Homo sapiens, UniProt Q9Y463); assay: NanoBRET (SGC Frankfurt) (DYRK1B)
[37] = biological target: Alpha-2A adrenergic receptor (Homo sapiens) (UniProt P08913); settings: Compound concentration 10.0 uM
Chain of Alpha-2A adrenergic receptor (Homo sapiens) (P08913 whole entry): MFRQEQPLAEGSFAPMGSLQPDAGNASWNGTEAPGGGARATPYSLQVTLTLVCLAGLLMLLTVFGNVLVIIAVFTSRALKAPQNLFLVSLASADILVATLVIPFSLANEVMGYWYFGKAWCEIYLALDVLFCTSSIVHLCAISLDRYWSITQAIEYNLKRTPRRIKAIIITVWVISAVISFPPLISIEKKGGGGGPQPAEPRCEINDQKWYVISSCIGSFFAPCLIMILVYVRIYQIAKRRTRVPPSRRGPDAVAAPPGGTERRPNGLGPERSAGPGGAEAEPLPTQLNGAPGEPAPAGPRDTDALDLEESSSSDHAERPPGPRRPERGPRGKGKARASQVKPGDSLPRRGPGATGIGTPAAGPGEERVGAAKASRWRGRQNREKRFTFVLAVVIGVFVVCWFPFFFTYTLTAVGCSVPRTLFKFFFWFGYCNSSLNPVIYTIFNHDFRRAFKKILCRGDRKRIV

[38] = biological target: Receptor-type tyrosine-protein kinase FLT3 (Homo sapiens, UniProt P36888, D835V); assay: NanoBRET (SGC Frankfurt) (FLT3 (D835V))
Histamine H1 receptor [39] = biological target: T2, Histamine H1 receptor; assay: GPCRScan assay: inhibition of H1; design: radioligand conc. used [nm] 0.6 – 2.0, parental cells stable HEK
D(3) dopamine receptor = D(3) dopamine receptor (Homo sapiens, UniProt P35462); settings: Compound concentration 10.0 uM

CN1CCN(C(=O)C(C)(C)c2ccc(C(=O)Nc3cn4cc(-c5ccncc5)ccc4n3)cc2)CC1 [T3-CLK] gave an inhibition [1] of 7.47%, an inhibition (D(2) dopamine receptor) of 10.8% and an inhibition [2] of -7.3%. For the same compound, the IC50 [3] was 0.668 µM (not active), the inhibition [4] was 5.95% and the inhibition [5] was 8.33%. It also gave an inhibition [6] of 12.4%, an inhibition (Mu-type opioid receptor) of 5.33% and an inhibition [7] of 19.3%. For the same compound, the inhibition [8] was 5.3%, the inhibition [9] was 16.9% and the inhibition [10] was -5.11%. For the same compound, the inhibition [11] was -7.22%, the IC50 [12] was 0.00198 µM (active) and the inhibition [13] was 3.82%. The inhibition [14] was 21.1%, the inhibition [15] was 7.83% and the inhibition [16] was -7.63%. For the same compound, the inhibition [17] was -5.18%, the inhibition [18] was -5.21% and the inhibition [19] was 13.4%. The inhibition [20] was -6.32%, the inhibition [21] was 4.68% and the inhibition [22] was -3.55%. The IC50 [23] was 0.00349 µM (active), the inhibition (D(1A) dopamine receptor) was 4.41% and the inhibition [24] was 9.12%. The inhibition (Histamine H1 receptor [25]) was 54.9%, the inhibition [26] was 17.2% and the inhibition (Histamine H2 receptor) was 19.4%. For the same compound, the inhibition [27] was 16.6%, the IC50 [28] was 0.125 µM (not active) and the inhibition [29] was 4.05%. The inhibition [30] was 16.6%, the inhibition [31] was -1.52% and the inhibition [32] was 9.31%. The inhibition [33] was 25.2%, the inhibition [34] was 1.81% and the IC50 [35] was 0.032 µM. The IC50 [36] was 0.067 µM, the inhibition [37] was 2.61% and the IC50 [38] was 0.138 µM (not active). For the same compound, the Ki (Histamine H1 receptor [39]; read-out: Ki) was 2.15 µM and the inhibition (D(3) dopamine receptor) was 12.8%.
In the case of CN1CCN(C(=O)C(C)(C)c2ccc(C(=O)Nc3cn4cc(-c5cc(C(C)(C)C)cc(C(C)(C)C)c5)ccc4n3)cc2)CC1 [T3-CLK-N], the inhibition [1] is reported as 13.5%, the inhibition (D(2) dopamine receptor) is reported as 57.5% and the inhibition [2] is reported as 29.7%. For the same compound, the IC50 [3] was > 10 µM (not active), the inhibition [4] was 50.5% and the inhibition [5] was -0.51%. It also gave an inhibition [6] of 83%, an inhibition (Mu-type opioid receptor) of 55.7% and an inhibition [7] of 77.6%. The inhibition [8] was 40.8%, the inhibition [9] was 90% and the inhibition [10] was 4.08%. The inhibition [11] was 28%, the IC50 [12] was > 10 µM (not active) and the inhibition [13] was 6.55%. It also gave an inhibition [14] of 40.4%, an inhibition [15] of 66.9% and an inhibition [16] of 44.1%. The inhibition [17] was 66.4%, the inhibition [18] was 45.2% and the inhibition [19] was 97.9%. It also gave an inhibition [20] of 54.4%, an inhibition [21] of 50.5% and an inhibition [22] of 26.3%. For the same compound, the IC50 [23] was > 10 µM (not active), the inhibition (D(1A) dopamine receptor) was 58.2% and the inhibition [24] was 34.8%. The inhibition (Histamine H1 receptor [25]) was 83%, the inhibition [26] was 88.5% and the inhibition (Histamine H2 receptor) was 86.8%. The inhibition [27] was 17.2%, the IC50 [28] was > 10 µM (not active) and the inhibition [29] was 46.2%. The inhibition [30] was 43.8%, the inhibition [31] was 60.5% and the inhibition [32] was 30.8%. The inhibition [33] was 0.99%, the inhibition [34] was 6.47% and the IC50 [35] was > 10 µM (not active). For the same compound, the IC50 [36] was > 10 µM (not active), the inhibition [37] was 83.7% and the IC50 [38] was > 10 µM (not active). For the same compound, the Ki (Histamine H1 receptor [39]; read-out: Ki) was 1.9 µM, the Ki (Histamine H1 receptor [39]; read-out: pKi (converted)) was 1.32 µM and the inhibition (D(3) dopamine receptor) was 78.9%.
